In US11752116B2, “Method of viral inhibition” (priority 2013, dated 2023):

Columns and labels:
[1] = Cytotoxicity analysis in PBMCs; type: cell-based; settings: human
DENV-2 [2] = assay: Delayed addition in DENV-2 infected Huh-7 cells, viral titre by plaque assay; type: cell-based; settings: 7.5 μM added 12 h p.i., at 60 h p.i.
Protocol: (§1) To gain further insight into the mode of action of 4-HPR, the human liver carcinoma cell line, Huh-7 cells were infected with DENV-2 (MOI of 1), followed by delayed addition of drug diluent DMSO (DENV only), 7.5 μM 4-HPR, 7.5 μM 4-MPR or 10 μM NITD008 (a previously described adenosine nucleoside inhibitor), 12 h post infection. Cells were lysed at the indicated times, RNA was extracted by Trizol and analysed by qPCR with fold change in expression of NS1 calculated relative to the untreated control (FIG. 5B). Concurrently, culture medium was collected and viral titres determined by plaque assay (FIG. 5C).

DENV-1 [3] = assay: ADE-mediated DENV-1 infection of THP-1 cells, plaque assay; type: cell-based; settings: Dengue virus, DENV1, THP-1, 48 h, read-out: EC50, ADE-mediated DENV-1 infection
Source text: In a cell culture model of antibody-dependent enhanced (ADE) DENV infection, THP-1 human monocyte cells infected with DENV-1 in the presence of sub-neutralising levels of a humanized version of the 4G2 antibody, which is cross-reactive with flavivirus envelope proteins (Paradkar et al., 2010 Bio Sci Rep.), show increased virus production compared to cells infected with virus alone. This model mimics the ADE phenomenon thought to occur in patients infected with a second serotype of DENV, which is associated with more severe DENV disease.
Briefly, humanized 4G2 antibody (0.05 μg/ml) was combined with DENV-1 (MOI of 10), and 4-HPR (concentrations as indicated in FIG. 7) in serum-free media, and incubated on ice for 1 h for the immune complex to form. Immune complex inoculums were added to THP-1 cells and incubated for 48 h. Supernatants were collected after 2 days and infectious virus production was quantified by plaque assay.

[4] = test system: West Nile virus, Kunjin strain (WNVKUN); assay: West Nile virus (Kunjin strain) infection of Vero cells, plaque assay; type: cell-based; settings: 10 μM, 4 h incubation of Vero cells at the time of infection
Protocol: FIG. 9C. Viral titre from a plaque assay conducted from Vero cells infected with West Nile virus (Kunjin strain; WNVKUN) after treatment with 10 μM 4-HPR for 4 h.

DENV-3 = assay: Plaque assay in Huh-7 cells, DENV-3; type: cell-based; settings: Dengue virus, DENV3, Huh-7, 48 h, read-out: EC50, infectious virus titre DENV 3
Protocol: (§2) To ensure the antiviral activity of 4-HPR is not cell-line specific Huh-7 cells were also infected with DENV-1, 2, 3 or 4 (MOI of 0.3) in the presence of increasing concentrations of 4-HPR, with infectious virus titres determined by plaque assay at 48 h p.i.

DENV-2 [5] = assay: Time-of-addition DENV-2 assay in Vero cells, intracellular viral RNA by qRT-PCR; type: cell-based; settings: 10 μM for 2 h, added prior to, during, or up to 24 h p.i.
Protocol: To investigate whether 4-HPR can inhibit DENV-2 replication when added prior to infection or post infection (p.i.), 10 μM drug or DMSO (drug diluent) was added to Vero cells 2 h prior to infection, for 2 h during infection, 2 h p.i., or 24 h p.i. In each instance the drug was incubated with the cells for 2 h then removed. Infections were performed for 2 h (MOI of 1) followed by analysis of intracellular viral RNA by qRT-PCR 48 h p.i. Data shown are the mean+SD from one experiment, representative of three independent assays.

DENV-2 [6] = assay: DENV-2 infectivity assay in Vero cells, viral RNA copies in culture medium by RT-PCR; type: cell-based; settings: MOI of 1
Protocol: To test the specificity of 4-HPR and 4-oxo-4-HPR for anti-DENV activity Vero cells were infected with DENV-2 with a multiplicity of infection (MOI) of 1, in the presence of drug diluent (untreated) or the indicated compounds (10 μM in FIG. 3A, or 10 μM or 5 μM as indicated in FIG. 3B) for 2 h, followed by removal of the virus/drug inoculums, and addition of fresh 2% FCS maintenance medium. At 24 h post infection (p.i.) the culture medium was collected and the viral RNA extracted using QIAamp viral RNA mini kit (Qiagen). Absolute RNA copies present in each sample were determined by Taqman One Step RT-PCR (Applied Biosystems), as an estimate of virus titre by extrapolation from a standard curve generated from in vitro transcribed DENV RNA. Data shown are the mean+standard error of the mean (SEM) for 3 (FIG. 3A) or 2 (FIG. 3B) independent experiments. Statistical analysis (Student's ttest) was performed using GraphPad Prism software.

DENV-2 [7] = assay: Delayed addition in DENV-2 infected Huh-7 cells, NS1 RNA by qPCR; type: cell-based; settings: 7.5 μM added 12 h p.i., at 24 h p.i.
Protocol: as §1

Vero cells = assay: XTT cell viability assay in Vero cells; type: cell-based; settings: 24 h, up to 25 μM
Protocol: To determine the effect of 4-HPR on cell viability, and to ensure that the reduced viral titres were not due to compound toxicity, XTT reagent was used to measure mitochondrial activity of drug treated cells. Briefly, Vero cells were incubated with 0, 1, 10 or 25 μM 4-HPR for 24 h. XTT reagent was added directly to cells and incubated for 6 h at 37° C. prior to spectrophotometric analysis. Data shown are the mean+SD of a single experiment performed in triplicate wells.

DENV-1 [8] = assay: Cell-based flavivirus immunodetection assay in BHK-21 cells, DENV-1; settings: MOI of 0.3, 48 h p.i.
Protocol: (§3) To investigate this, BHK-21 cells were infected with DENV serotypes 1, 2, 3 or 4 (MOI of 0.3) for 1 h in the presence of 4-HPR or 4-MPR (concentrations as indicated in FIG. 6A). Virus inoculum was removed and fresh media containing the indicated compounds was added. Virus infection rates were determined 48 h p.i. using a cell-based flavivirus immunodetection assay. Briefly, cells were fixed and stained for DENV structural protein, E, followed by addition of Alexa Fluor 488 anti-mouse IgG. Viral antigen quantification was performed using Imagexpress. Data shown are representative of a single experiment

DENV-2 [9] = assay: Cell-based flavivirus immunodetection assay in BHK-21 cells, DENV-2; settings: Dengue virus, DENV2, BHK-21, 48 h, read-out: EC50, DENV-2 replication
Protocol: as §3

[10] = up to 4,000 mg/m^2/day, daily for 28 days, including in children; cited from earlier work
DENV-1 [11] = assay: Plaque assay in Huh-7 cells, DENV-1; type: cell-based; settings: Dengue virus, DENV1, Huh-7, 48 h, read-out: EC50, infectious virus titre DENV 1
Protocol: as §2

CC1=C(/C=C/C(C)=C/C=C/C(C)=C/C(=O)Nc2ccc(O)cc2)C(C)(C)CCC1 [4-HPR, N-(4-hydroxyphenyl) retinamide]
CC50 at 48 h [1]: > 13000 nM | virus titre lower than untreated and 4-MPR-treated controls (DENV-2 [2]): 3 logs | EC50 (DENV-1 [3]): 850 nM | reduction in infectious virus produced (WNVKUN) [4]: 89% | EC50 (DENV-3): 1400 nM | intracellular DENV-2 RNA copies 48 h p.i. (DENV-2 [5]): substantial reduction | reduction in viral RNA copies at 24 h p.i. (DENV-2 [6]; 5 μM compound for 2 h during infection): ~1 log | reduction in viral RNA copies at 24 h p.i. (DENV-2 [6]; 10 μM compound for 2 h during infection): 2 log | reduction in viral RNA levels (NS1 qPCR) (DENV-2 [7]): 1 log | effect on cell viability (XTT) (Vero cells): no effect on cell viability | EC50, DENV-1 replication (DENV-1 [8]): low EC50 | EC50 (DENV-2 [9]): 2240 nM | toxicity profile in cancer treatment [10]: favourable toxicity profiles | EC50 (DENV-1 [11]): 2600 nM
